Measured values taken from PubChem BioAssay AID1963959 (Molecular Pharmacology Branch, DTP, NCI, 2024).

Tested on: T-47D spheroids with HUVEC/MSC, viability
Assay: Anticancer human tumor T-47D cell line growth inhibition [PI3K];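 also: spheroids exposed to agents for seven days before reading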;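 as to viability, T/C: percent of DMSO vehicle control luminescence so 100% = untreated growth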
Settings: for IC50: curve of first compound; for viability, T/C: stronger effect = lower value
Outline: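 Targeted small molecules plus PI3K inhibitors, half-log dose series from Cmax (default top 10 microM), were applied to heterotypic spheroids of cancer cells with HUVEC and MSCs. Viability indicated growth inhibition.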

[1] = second compound 0.0316 µM, first compound 0.0316 µM
[2] = second compound 0.0316 µM, first compound 0.1 µM
[3] = second compound 0.0316 µM, first compound 0.316 µM
[4] = second compound 0.0316 µM, first compound 1 µM
[5] = second compound 0.0316 µM, first compound 3.16 µM
[6] = second compound 0.0316 µM, first compound 10 µM
[7] = second compound 0.1 µM, first compound 0.0316 µM
[8] = second compound 0.1 µM, first compound 0.1 µM
[9] = second compound 0.1 µM, first compound 0.316 µM
[10] = second compound 0.1 µM, first compound 1 µM
[11] = second compound 0.1 µM, first compound 3.16 µM
[12] = second compound 0.1 µM, first compound 10 µM
[13] = second compound 0.316 µM, first compound 0.0316 µM
[14] = second compound 0.316 µM, first compound 0.1 µM
[15] = second compound 0.316 µM, first compound 0.316 µM
[16] = second compound 0.316 µM, first compound 1 µM
[17] = second compound 0.316 µM, first compound 3.16 µM
[18] = second compound 0.316 µM, first compound 10 µM
[19] = second compound 1 µM, first compound 0.0316 µM
[20] = second compound 1 µM, first compound 0.1 µM
[21] = second compound 1 µM, first compound 0.316 µM
[22] = second compound 1 µM, first compound 1 µM
[23] = second compound 1 µM, first compound 3.16 µM
[24] = second compound 1 µM, first compound 10 µM

Compound CC1(C)CCC(Nc2ncc(C(F)(F)F)c(-c3c[nH]c4c(P(C)(C)=O)c(C#N)ccc34)n2)CN1 (centres undefined) + Cc1nc(NC(=O)N2CCCC2C(N)=O)sc1-c1ccnc(C(C)(C)C(F)(F)F)c1 has an IC50 (second compound 0.0316 µM) of 8.08 µM, an IC50 (second compound 0.1 µM) greater than 10 µM and an IC50 (second compound 0.316 µM) of 4.92 µM. The IC50 (second compound 1 µM) was 3.39 µM, the IC50 (second compound 3.16 µM) was less than 0.0316 µM and the IC50 (second compound 10 µM) was less than 0.0316 µM. For the same compound, the viability, T/C [1] was 73.6%, the viability, T/C [2] was 64.5% and the viability, T/C [3] was 73.7%. It also gave a viability, T/C [4] of 72.4%, a viability, T/C [5] of 72.2% and a viability, T/C [6] of 45.1%. For the same compound, the viability, T/C [7] was 68.7%, the viability, T/C [8] was 65.8% and the viability, T/C [9] was 65.6%. It also gave a viability, T/C [10] of 64.6%, a viability, T/C [11] of 70.9% and a viability, T/C [12] of 42.9%. For the same compound, the viability, T/C [13] was 67%, the viability, T/C [14] was 57.7% and the viability, T/C [15] was 55%. It also gave a viability, T/C [16] of 55.7%, a viability, T/C [17] of 59.2% and a viability, T/C [18] of 35.9%. The viability, T/C [19] was 56.7%, the viability, T/C [20] was 58.1% and the viability, T/C [21] was 45.2%. The viability, T/C [22] was 44.2%, the viability, T/C [23] was 54.4% and the viability, T/C [24] was 22.7%. For the same compound, the viability, T/C (second compound 3.16 µM, first compound 0.0316 µM) was 47.3%, the viability, T/C (second compound 3.16 µM, first compound 0.1 µM) was 41.3% and the viability, T/C (second compound 3.16 µM, first compound 0.316 µM) was 42.3%. For the same compound, the viability, T/C (second compound 3.16 µM, first compound 1 µM) was 38.6%, the viability, T/C (second compound 3.16 µM, first compound 3.16 µM) was 40.1% and the viability, T/C (second compound 3.16 µM, first compound 10 µM) was 8.96%. For the same compound, the viability, T/C (second compound 10 µM, first compound 0.0316 µM) was 30.3%, the viability, T/C (second compound 10 µM, first compound 0.1 µM) was 29.4% and the viability, T/C (second compound 10 µM, first compound 0.316 µM) was 26.6%. It also gave a viability, T/C (second compound 10 µM, first compound 1 µM) of 27.5%, a viability, T/C (second compound 10 µM, first compound 3.16 µM) of 20.8% and a viability, T/C (second compound 10 µM, first compound 10 µM) of 3.07%.

Cn1nccc1Nc1nccc(-c2ccn(C(CO)c3ccc(Cl)c(F)c3)c(=O)c2)n1 (centres undefined) + CC(Nc1ccc2c(c1)OCCn1cc(N3C(=O)OCC3C(F)F)nc1-2)C(N)=O gave an IC50 (second compound 0.00316 µM) greater than 10 µM, an IC50 (second compound 0.01 µM) greater than 10 µM and an IC50 (second compound 0.0316 µM) greater than 10 µM. The IC50 (second compound 0.1 µM) was greater than 10 µM, the IC50 (second compound 0.316 µM) was greater than 10 µM and the IC50 (second compound 1 µM) was greater than 10 µM. The viability, T/C (second compound 0.00316 µM, first compound 0.0316 µM) was 98.6%, the viability, T/C (second compound 0.00316 µM, first compound 0.1 µM) was 97.4% and the viability, T/C (second compound 0.00316 µM, first compound 0.316 µM) was 93.3%. For the same compound, the viability, T/C (second compound 0.00316 µM, first compound 1 µM) was 96%, the viability, T/C (second compound 0.00316 µM, first compound 3.16 µM) was 113% and the viability, T/C (second compound 0.00316 µM, first compound 10 µM) was 109%. For the same compound, the viability, T/C (second compound 0.01 µM, first compound 0.0316 µM) was 106%, the viability, T/C (second compound 0.01 µM, first compound 0.1 µM) was 92.8% and the viability, T/C (second compound 0.01 µM, first compound 0.316 µM) was 104%. The viability, T/C (second compound 0.01 µM, first compound 1 µM) was 106%, the viability, T/C (second compound 0.01 µM, first compound 3.16 µM) was 111% and the viability, T/C (second compound 0.01 µM, first compound 10 µM) was 99.6%. It also gave a viability, T/C [1] of 86.1%, a viability, T/C [2] of 85.2% and a viability, T/C [3] of 93.2%. It also gave a viability, T/C [4] of 99.7%, a viability, T/C [5] of 105% and a viability, T/C [6] of 85.7%. For the same compound, the viability, T/C [7] was 103%, the viability, T/C [8] was 100% and the viability, T/C [9] was 89.4%. It also gave a viability, T/C [10] of 92.9%, a viability, T/C [11] of 87% and a viability, T/C [12] of 92.3%. For the same compound, the viability, T/C [13] was 71.8%, the viability, T/C [14] was 71.3% and the viability, T/C [15] was 65.4%. It also gave a viability, T/C [16] of 67%, a viability, T/C [17] of 69.4% and a viability, T/C [18] of 71.3%. It also gave a viability, T/C [19] of 65.7%, a viability, T/C [20] of 60% and a viability, T/C [21] of 52%. For the same compound, the viability, T/C [22] was 47.4%, the viability, T/C [23] was 58.1% and the viability, T/C [24] was 57.1%.
